Test results reported in patent US20040039060A1, “Inhibitor for enzyme having two divalent metal ions as active centers” (priority 2000, published 2004).
Read-outs that look alike come from different tables or passages of the source.

Columns and labels:
HIV-1 integrase = HIV-1 integrase (Human immunodeficiency virus type 1 group M subtype B, UniProt P04585); assay: HIV-1 integrase inhibition assay (microtiter plate, immobilised substrate DNA, Dig-labelled target DNA, OD 405 nm); type: biochemical
Method: Substrate DNA and target DNA, which sequences were indicated below, were synthesized by Amersham Pharmacia Biotech and dissolved in KTE buffer (composition: 100 mM KCl, 1 mM EDTA, 10 mM Tris-HCl (pH 7.6)) at concentration of 2 pmol/μl and 5 pmol/μl, respectively. The DNA solutions were annealed with each complement by slowly cooling after heating.
Streptavidin, obtained from Vector Laboratories, was dissolved in 0.1 M carbonate buffer (composition: 90 mM Na2CO3, 10 mM NaHCO3) at concentration of 40 μg/ml. After coating each well of microtiter plates (obtained from NUNC) with 50 μl of the above solution at 4° C. overnight, each well was washed twice with PBS (composition: 13.7 mM NaCl, 0.27 mM KCl, 0.43 mM Na2HPO4, 0.14 mM KH2PO4) and blocked with 300 μl of 1% skim milk in PBS for 30 min. Additionally, each well was washed twice with PBS and added 50 μl of substrate DNA solution (2 pmol/μl). The microtiter plates were kept at room temperature for 30 min. Then, each well was washed twice with PBS and once with H2O.
Subsequently, in the each well prepared above were added 45 μl of the reaction buffer prepared from 12 μl of the buffer (composition: 150 mM MOPS (pH 7.2), 75 mM MnCl2, 50 mM 2-mercaptoethanol, 25% glycerol, 500 μg/ml bovine serum albumin-fraction V), 1 μl of target DNA (5 pmol/μl), and 32 μl of the distilled water. Additionally, 6 μl of either a test compound in DMSO or DMSO for positive control(PC) was mixed with the above reaction buffer, then 9 μl of an integrase solution (30 pmol) was added and mixed well. In the well of negative control (NC) was added 9 μl of the integrase dilution buffer (composition: 20 mM MOPS (pH7.2), 400 mM potassium glutamate, 1 mM EDTA, 0.1% NP-40, 20% glycerol, 1 mM DTT, 4M urea).
The microtiter plates were incubated at 30° C. for 1 hour. The reaction solution was removed and each well was washed twice with PBS. Subsequently, each well of the microtiter plates was filled with 100 μl of anti-digoxigenin antibody labeled with alkaline phosphatase (Sheep Fab fragment: obtained from Boehringer) and incubated at 30° C. for 1 hour. Then, each well was washed twice with 0.05% Tween20 in PBS and once with PBS. Next, 150 μl of the Alkaline phosphatase reaction buffer (composition: 10 mM p-Nitrophenylphosphate (obtained from Vector Laboratories), 5 mM MgCl2, 100 mM NaCl, 100 mM Tris-HCl (pH 9.5)) was added in each well. […] The optical density (OD) at 405 nm of each well was measured and the percent inhibition was determined by the following expression.
The percent inhibition (%)=100[1-{(C abs.−NC abs.)/(PC abs.−NC abs.)}]
When the percent inhibition (%) is X % at the concentration of x μg/ml and the percent inhibition (%) is Y % at the concentration of y μg/ml, one of which is more than 50% and the other is less than 50%, IC50 can be determined by the following expression.
IC50(μg/ml)=x-{(X-50)(x-y)/(X-Y)}
Compound No. in the Table 1 is the same as compound No. of the above example.

[1] = UV spectrum measurement with stepwise addition of Mg2+ solution (chelate formation); type: physicochemical; conditions: compound 0.05 mmol/l, Mg2+ 0 to 3.6 mol/l, 240 nm to 500 nm, cell length 1 cm
Method: Compounds C-1, D-2, D-5 and D-6 were employed to determine UV spectra with treating dropwise with metal solutions.
The UV spectrum measurement was conducted with the cell length of 1 cm at a wavelength of 240 nm to 500 nm. Each test solution was obtained by preparing Solutions A^1, A2, B and C as shown below, adding an indicated volume of Solution A^1 or A2 to 1 ml of Solution B, making the total, volume 10 ml with Solution C. The concentrations of Compounds C-1, D-2, D-5 and D-6 in test solutions here were all adjusted at 0.05 mmol/l, and the concentrations of Mg^2+ were as indicated in Table 5.
Solution A1: MgCl2 4 mol/l, MOPS 50 mmol/l, NaOH 23.6 mmol/l, Solvent: Water
Solution A2: MgCl2 1 mol/l, MOPS 50 mmol/l, NaOH 23.6 mmol/l, Solvent: Water
Solution B: Compound 1 0.5 mmol/l, Solvent: DMSO
Solution C: NaCl 3 mol/l, MOPS 50 mmol/l, 23.6 mmol/l, Solvent: Water
For the purpose of indicating the change in the UV spectrum as a result of the increase in the metal ion concentration, one figure contained each UV spectrum curve at various metal ion concentrations.

Compound | melting point | IC50 (HIV-1 integrase) [µM] | change in the UV spectrum curve as the metal ion concentration was increased [1] | IC50 (HIV-1 integrase; concentration of the compound at percent inhibition 50%, MnCl2 buffer, 30° C., 1 hour) [µg/mL]
O=C(C=C(O)c1nn[nH]n1)c1ccc(Cc2ccc(F)cc2)o1 [Compound A-1, 1-[5-(4-Fluorobenzyl)furan-2-yl]3-hydroxy-3-(2H-tetrazol-5-yl)-propenone] | 121 to 123 °C | 1.27 | – | –
O=C(C=C(O)c1ncccn1)c1ccc(Cc2ccc(F)cc2)o1 [Compound A-2, 1-[5-(4-Fluorobenzyl)furan-2-yl]-3-hydroxy-3-(pyrimidin-2-yl)-propenone] | 77 to 80 °C | 0.247 | – | –
O=C(C=C(O)c1cnccn1)c1ccc(Cc2ccc(F)cc2)o1 [Compound A-3, 1-[5-(4-Fluorobenzyl)furan-2-yl]-3-hydroxy-3-(pyrazin-2-yl)-propenone] | 127 to 129 °C | 1.85 | – | –
O=C(C=C(O)c1ccccn1)c1ccc(Cc2ccc(F)cc2)o1 [Compound A-4, 1-[5-(4-Fluorobenzyl)furan-2-yl]-3-hydroxy-3-(pyridin-2-yl)-propenone] | 84 to 85 °C | 0.619 | – | –
O=C(O)c1ccnc(C(O)=CC(=O)c2ccc(Cc3ccc(F)cc3)o2)c1 [Compound A-5, 3(4-Carboxypyridin-2-yl)-1-[5-(4-fluorobenzyl)furan-2-yl]-3-hydroxy-propenone] | 208 to 210 °C | 0.191 | – | –
O=C(O)c1ccc(C(O)=CC(=O)c2ccc(Cc3ccc(F)cc3)o2)nc1 [Compound A-6, 3-(5-Carboxypyridin-2-yl)-1-[5-(4-fluorobenzyl)furan-2-yl]-3-hydroxy-propenone] | 196 to 198 °C | 0.272 | – | –
O=C(C=C(O)c1cc2ccccc2cn1)c1ccc(Cc2ccc(F)cc2)o1 [Compound A-7, 1-[5-(4-Fluorobenzyl)furan-2-yl]-3-hydroxy-3-(isoquinolin-3-yl)-propenone] | 154 to 156 °C | 3.75 | – | –
O=C(C=C(O)c1ccon1)c1ccc(Cc2ccc(F)cc2)o1 [Compound A-9, 1-[5-(4-Fluorobenzyl)furan-2-yl]-3-hydroxy-3-(isoxazol-3-yl)-propenone] | 50 to 52 °C | 10.5 | – | –
Cc1cc(C(O)=CC(=O)c2ccc(Cc3ccc(F)cc3)o2)no1 [Compound A-10, 1-[5-(4-Fluorobenzyl)furan-2-yl]-3-hydroxy-3-(5-methylisoxazol-3-yl)-propenone] | 95 to 97 °C | 5.5 | – | –
O=C(C=C(O)c1ccco1)c1ccc(Cc2ccc(F)cc2)o1 [Compound B-1, 1-[5-(4-Fluorobenzyl)furan-2-yl]-3-(furan-2-yl)-3-hydroxy-propenone] | 44 to 45 °C | > 320 | – | –
O=C(C=C(O)c1ccoc1)c1ccc(Cc2ccc(F)cc2)o1 [Compound B-2, 1-[5-(4-Fluorobenzyl)furan-2-yl]-3-(furan-37yl)-3-hydroxy-propenone] | 53 to 55 °C | > 320 | – | –
O=C(C=C(O)c1cccs1)c1ccc(Cc2ccc(F)cc2)o1 [Compound B-3, 1-[5-(4-Fluorobenzyl)furan-2-yl]-3-(thiophen-2-yl)-3-hydroxy-propenone] | 50 to 52 °C | > 305 | – | –
O=C(C=C(O)c1cccnc1)c1ccc(Cc2ccc(F)cc2)o1 [Compound B-4, 1-[5-(4-Fluorobenzyl)furan-2-yl]-3-hydroxy-3-(pyridin-3-yl)-propenone] | 53 to 54 °C | > 309 | – | –
Cn1cccc1C(O)=CC(=O)c1ccc(Cc2ccc(F)cc2)o1 [Compound B-5, 1-[5-(4-Fluorobenzyl)furan-2-yl]-3-hydroxy-3-(1-methylpyrrol-2-yl)-propenone] | 75 to 76 °C | > 307 | – | –
O=C(/C=C(\O)c1ccc[nH]1)c1ccc(Cc2ccc(F)cc2)o1 [Compound B-6, 1-[5-(4-Fluorobenzyl)furan-2-yl]-3-hydroxy-3-(pyrrol-2-yl)-propenone] | – | > 321 | – | –
Cc1cc(C(O)=CC(=O)c2ccc(Cc3ccc(F)cc3)o2)on1 [Compound B-7, 1-[5-(4-Fluorobenzyl)furan-2-yl]-3-hydroxy-3-(3-methylisoxazol-5-yl)-propenone] | 106 to 107 °C | > 306 | – | –
O=C(C=C(O)c1ccncc1)c1ccc(Cc2ccc(F)cc2)o1 [Compound B-8, 1-[5-(4-Fluorobenzyl)furan-2-yl]-3-hydroxy-3-(pyridin-4-yl)-propenone] | 90 to 92 °C | > 309 | – | –

Compound | melting point | IC50 (HIV-1 integrase) [µM] | change in the UV spectrum curve as the metal ion concentration was increased [1] | IC50 (HIV-1 integrase; concentration of the compound at percent inhibition 50%, MnCl2 buffer, 30° C., 1 hour) [µg/mL]
O=C(C=C(O)c1ncccc1C(=O)O)c1ccc(Cc2ccc(F)cc2)o1 [Compound B-9, 3-(3-Carboxypyridin-2-yl)-1-[5-(4-fluorobenzyl)furan-2-yl]-3-hydroxy-propenone] | 127 to 130 °C | > 272 | – | –
OC(=Cc1cc(CCc2ccccc2)ncn1)c1nnn[nH]1 [Compound C-2] | – | 4.76 | – | –
OC(=Cc1cc(CCc2ccccc2)ncn1)c1ncn[nH]1 [Compound C-3] | – | 1.7 | – | –
OC(=Cc1cc(CCc2ccccc2)ncn1)c1nccs1 [Compound C-4] | – | 1.94 | – | –
OC(=Cc1cc(CCc2ccccc2)ncn1)c1cnccn1 [Compound C-5] | – | 5.26 | – | –
Cc1cc(C(O)=Cc2cc(CCc3ccccc3)ncn2)no1 [Compound C-6] | – | 2.73 | – | –
O=C(O)C(O)=Cc1cnc(CCc2ccccc2)cn1 [Compound C-7] | – | 2.26 | – | –
O=C(O)/C(O)=C/c1ccc(OCc2ccccc2)cn1 [Compound C-8] | – | 1.7 | – | –
Cc1cc(C(O)=Cc2cc(CCc3ccccc3)ncn2)on1 [Compound D-1] | – | > 325 | – | –
O=C(O)/C=C/c1cc(CCc2ccccc2)ncn1 [Compound D-2] | – | – | no change | >100
O=C(O)C(O)Cc1cc(CCc2ccccc2)ncn1 [Compound D-3] | – | > 367 | – | –
COC(=O)C(=O)c1oc2ccc(OCc3ccc(F)cc3)cc2c1O [Compound E-1, [5-(4-Fluoro-benzyloxy)-3-hydroxy-benzofuran-2-yl]-2-oxo-acetic acid methyl ester] | – | 7.55 | – | –
O=C(O)C(=O)c1oc2ccc(OCc3ccc(F)cc3)cc2c1O [Compound E-2, [5-(4-Fluoro-benzyloxy)-3-hydroxy-benzofuran-2-yl]-2-oxo-acetic acid] | – | 7.87 | – | –
COC(=O)C(=O)c1oc2ccc(Cc3ccc(F)cc3)cc2c1O [Compound E-5, [5-(4-Fluoro-benzyl)-3-hydroxy-benzofuran-2-yl]-2-oxo-acetic acid methyl ester] | 128 to 130 °C | – | – | –
O=C(O)C(=O)c1oc2ccc(Cc3ccc(F)cc3)cc2c1O [Compound E-6, [5-(4-Fluorobenzyl)-3-hydroxy-benzofuran-2-yl]-2-oxo-acetic acid] | 207 to 210 °C | – | – | –
O=C(c1ccccn1)c1oc2ccc(Cc3ccc(F)cc3)cc2c1O [Compound E-8, 1-[5-(4-Fluoro-benzyl)-3-hydroxy-benzofuran-2-yl]-1-pyridine-2-yl-methanone] | 258 °C (dec.) | – | – | –
